Source: ChEMBL document CHEMBL1687691, “From taxuspine x to structurally simplified taxanes with remarkable p-glycoprotein inhibitory activity” (ACS Med Chem Lett, 2010)

Assays:
[1] = target: T1, ATP-dependent translocase ABCB1 (Homo sapiens, UniProt P08183); assay: Inhibition of human MDR1 expressed in mouse L5178 cells assessed as increase in intracellular accumulation of rhodamine 123 AT 0.1 mM by FACSCalibur flow cytometry; assay type: cell-based; details: l5178, 100 µM
[2] = target: T1, ATP-dependent translocase ABCB1; assay: Inhibition of human MDR1 expressed in mouse L5178 cells assessed as increase in intracellular accumulation of rhodamine 123 by FACSCalibur flow cytometry; assay type: cell-based

T1 sequence (P08183 whole entry): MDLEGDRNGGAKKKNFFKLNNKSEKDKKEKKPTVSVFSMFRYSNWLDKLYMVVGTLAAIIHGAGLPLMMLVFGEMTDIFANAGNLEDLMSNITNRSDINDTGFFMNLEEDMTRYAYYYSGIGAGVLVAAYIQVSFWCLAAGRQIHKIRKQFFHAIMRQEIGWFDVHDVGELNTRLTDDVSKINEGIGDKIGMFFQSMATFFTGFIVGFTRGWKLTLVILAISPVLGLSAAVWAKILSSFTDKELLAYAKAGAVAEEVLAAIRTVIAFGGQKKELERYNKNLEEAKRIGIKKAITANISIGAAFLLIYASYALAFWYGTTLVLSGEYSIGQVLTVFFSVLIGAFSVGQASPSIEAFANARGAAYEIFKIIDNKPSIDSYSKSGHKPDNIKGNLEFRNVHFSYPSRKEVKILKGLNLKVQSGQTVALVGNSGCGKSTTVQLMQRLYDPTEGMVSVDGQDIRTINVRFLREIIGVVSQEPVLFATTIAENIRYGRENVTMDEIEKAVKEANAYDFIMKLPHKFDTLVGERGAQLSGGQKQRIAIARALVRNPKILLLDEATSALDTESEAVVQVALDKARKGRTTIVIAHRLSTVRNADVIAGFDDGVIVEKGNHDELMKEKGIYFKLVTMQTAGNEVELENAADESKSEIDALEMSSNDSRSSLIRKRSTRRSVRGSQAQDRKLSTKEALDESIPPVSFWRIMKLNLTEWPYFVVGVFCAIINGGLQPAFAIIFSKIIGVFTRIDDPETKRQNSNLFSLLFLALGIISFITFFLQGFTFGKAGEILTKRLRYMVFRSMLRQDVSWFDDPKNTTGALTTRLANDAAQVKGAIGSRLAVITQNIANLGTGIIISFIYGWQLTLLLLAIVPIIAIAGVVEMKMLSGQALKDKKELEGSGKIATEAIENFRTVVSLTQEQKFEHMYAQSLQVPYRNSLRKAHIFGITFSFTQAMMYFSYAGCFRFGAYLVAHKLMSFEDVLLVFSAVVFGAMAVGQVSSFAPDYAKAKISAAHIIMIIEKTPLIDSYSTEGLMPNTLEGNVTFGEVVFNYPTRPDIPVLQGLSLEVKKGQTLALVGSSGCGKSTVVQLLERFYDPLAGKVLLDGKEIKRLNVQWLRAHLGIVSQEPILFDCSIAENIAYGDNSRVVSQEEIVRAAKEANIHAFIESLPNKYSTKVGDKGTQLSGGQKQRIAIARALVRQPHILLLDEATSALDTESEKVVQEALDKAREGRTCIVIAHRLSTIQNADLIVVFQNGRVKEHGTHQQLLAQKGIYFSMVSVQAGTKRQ

Compound	Alpha max [1]	IC50 [2] [µM]
COCCOCO[C@@H]1/C=C\COC(=O)/C=C/[C@@H](OC)[C@@H]2CCC(C)=C1C2(C)C	0.37	
COCCOCO[C@@H]1/C=C\COC(=O)/C=C/[C@@H](OC)[C@@H]2C[C@@H](OC(=O)c3ccccc3)C(C)=C1C2(C)C	1	7.2
COCCOCO[C@@H]1/C=C\C(OC(C)=O)C(OC(C)=O)/C=C/[C@@H](OC)[C@@H]2CCC(C)=C1C2(C)C (stereo not given in full)	1	24
